molecular target: T1, Human autotaxin enzyme (Homo sapiens, UniProt Q13822); test: Evaluation of autotaxin inhibitor, Method C (Test Example 3): 18:0 Lyso PC, choline assay, Resorufin fluorescence; type: biochemical; details: Assay Method C (Test Example 3), human autotaxin, 18:0 Lyso PC substrate; read-out: Inhibitory Activity (autotaxin enzyme inhibitory activity, IC50 class)
T1 construct: purchased R&D System
Procedure, shortened: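 Human autotaxin in Tris-HCl pH 7.5, 150 mM NaCl, 5 mM MgCl2, 0.05% Triton X-100 reacted 2 h at room temperature with 18:0 Lyso PC (200 μM solution added). Released choline detected via choline oxidase/peroxidase/Amplex-type reagent, resorufin fluorescence (ex 531/em 598 nm); inhibition vs no-compound and no-enzyme controls, concentration-response curve.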

| Structure (SMILES) | IC50 |
| --- | --- |
| CCCCCn1c(N2CCC[C@@H]2CC(=O)O)cc(=O)n2cc(-c3ccc(Cl)cc3)nc12 [Compound 605] | 0.1 to 1 µM |
| CCCCCn1c(NCC(=O)NCC(=O)O)cc(=O)n2cc(-c3ccc(Cl)cc3)nc12 [Compound 603] | 0.1 to 1 µM |
| CCCCCn1c(N2CCN(C(=O)OC(C)(C)C)C[C@H]2C(=O)O)cc(=O)n2cc(-c3ccc(Cl)cc3)nc12 [Compound 641] | > 1 µM |
| CCCCCn1c(N2CCC[C@H]2C(=O)N[C@H](C)C(N)=O)cc(=O)n2cc(-c3ccc(Cl)cc3)nc12 [Compound 709] | 0.1 to 1 µM |
| CCCCCn1c(N(C)CC(=O)O)cc(=O)n2cc(-c3ccc(Cl)cc3)nc12 [Compound 602] | 0.1 to 1 µM |
| CCCCCn1c(/N=C(\C)OCc2ccc(C(=O)OC)cc2)cc(=O)n2cc(-c3ccc(Cl)cc3)nc12 [Compound 567] | > 1 µM |
| CCCCCn1c(N2C[C@H](F)C[C@H]2C(=O)NCCC(=O)OCC)cc(=O)n2cc(-c3ccc(Cl)cc3)nc12 [Compound 591] | 0.1 to 1 µM |
| CCCCCn1c(N2CC3CNCC3C2)cc(=O)n2cc(-c3ccc(Cl)cc3)nc12 (centres unmarked) [Compound 331] | 0.1 to 1 µM |
| NC(=O)c1ccc(-c2cc(=O)n3cc(-c4ccc(Cl)cc4)nc3n2CCCC(F)(F)F)cc1 [Compound 382] | 0.01 to 0.1 µM |
| CCCCCn1c(N2CCC(NS(C)(=O)=O)CC2)cc(=O)n2cc(-c3ccc(Cl)cc3)nc12 [Compound 298] | 0.1 to 1 µM |
| CCCCCn1c(C)c(CC(=O)OCC)c(=O)n2cc(-c3ccc(Cl)cc3)nc12 [Compound 202] | 0.01 to 0.1 µM |
| CCCCCn1c(-c2ccc(S(=O)(=O)N3CCOCC3)cc2)cc(=O)n2cc(-c3ccc(Cl)cc3)nc12 [Compound 430] | 0.01 to 0.1 µM |
| N#Cc1ccc(-c2cn3c(=O)cc(-c4ccc(C(N)=O)cc4)n(CCCC(F)(F)F)c3n2)cc1 [Compound 388] | 0.01 to 0.1 µM |
| CCCCCn1c(-c2ccc(C(C)=O)cc2)cc(=O)n2cc(-c3ccc(Cl)cc3)nc12 [Compound 391] | 0.01 to 0.1 µM |
| CCCCCn1c(-c2ccc(C(=O)NCCN3CCNC3=O)cc2)cc(=O)n2cc(-c3ccc(Cl)cc3)nc12 [Compound 516] | 0.01 to 0.1 µM |
| CCCCCn1c(C2=CCN(C(C)=O)CC2)cc(=O)n2cc(-c3ccc(Cl)cc3)nc12 [Compound 546] | 0.01 to 0.1 µM |
| CCCCCn1c(OCC2COC2)cc(=O)n2cc(-c3ccc(Cl)cc3)nc12 [Compound 720] | 0.1 to 1 µM |
| CN(C)CCNC(=O)c1ccc(-c2cc(=O)n3cc(-c4ccc(C#N)cc4)nc3n2CCCC(F)(F)F)cc1 [Compound 387] | 0.01 to 0.1 µM |

| Structure (SMILES) | IC50 |
| --- | --- |
| CCCCCn1c(N2CCC[C@H]2C(=O)NCC(C)C(=O)OC)cc(=O)n2cc(-c3ccc(Cl)cc3)nc12 (some centres unmarked) [Compound 571] | 0.1 to 1 µM |
| CCCCCn1c(-c2ccc(C(=O)NCCNC(C)=O)cc2)cc(=O)n2cc(-c3ccc(Cl)cc3)nc12 [Compound 470] | 0.01 to 0.1 µM |
| CCCCCn1c(N2CCC[C@H]2C(=O)N2CCC[C@H](C(=O)OCC)C2)cc(=O)n2cc(-c3ccc(Cl)cc3)nc12 [Compound 691] | 0.1 to 1 µM |
| CCCCCn1c(-c2ccc(NC(=O)N3CCOCC3)cc2)cc(=O)n2cc(-c3ccc(Cl)cc3)nc12 [Compound 437] | 0.01 to 0.1 µM |
| Cc1cc(=O)n2cc(-c3ccc(Cl)cc3)nc2n1Cc1c(F)cccc1F [Compound 119] | 0.1 to 1 µM |
| CCCCCn1c(-c2ccc(C(=O)NCCOCCO)cc2)cc(=O)n2cc(-c3ccc(Cl)cc3)nc12 [Compound 480] | 0.01 to 0.1 µM |
| Cn1c(N2CCC[C@H]2C(=O)N[C@@H](CCc2ccccc2)C(=O)O)cc(=O)n2cc(-c3ccc(Cl)cc3)nc12 [Compound 769] | 0.01 to 0.1 µM |
| CCCCCn1c(OCC2(F)COC2)cc(=O)n2cc(-c3ccc(Cl)cc3)nc12 [Compound 718] | 0.01 to 0.1 µM |
| CCCCCn1c(N(C)Cc2ccccc2)cc(=O)n2cc(-c3ccc(Cl)cc3)nc12 [Compound 219] | 0.01 to 0.1 µM |
| CCCCCn1c(-c2ccc(C(=O)NC3CN(C)C3)cc2)cc(=O)n2cc(-c3ccc(Cl)cc3)nc12 [Compound 489] | 0.01 to 0.1 µM |
| CCn1c(N2CCC[C@H]2C(=O)N[C@@H](CCc2ccccc2)C(=O)O)cc(=O)n2cc(-c3ccc(Cl)cc3)nc12 [Compound 757] | 0.01 to 0.1 µM |
| CC(C)(NC(=O)[C@@H]1CCCN1c1cc(=O)n2cc(-c3ccc(Cl)cc3)nc2n1Cc1ccccc1)C(=O)O [Compound 747] | 0.01 to 0.1 µM |
| CCCCCn1c(NCCC(=O)NCC(=O)O)cc(=O)n2cc(-c3ccc(Cl)cc3)nc12 [Compound 630] | 0.1 to 1 µM |
| CCn1c(N2CCC[C@H]2C(=O)N[C@@H](C)C(=O)O)cc(=O)n2cc(-c3ccc(Cl)cc3)nc12 [Compound 760] | 0.01 to 0.1 µM |
| CCCCCn1c(-c2ccc(C(=O)N3CCS(=O)(=O)CC3)cc2)cc(=O)n2cc(-c3ccc(Cl)cc3)nc12 [Compound 492] | 0.01 to 0.1 µM |
| CCCCCn1c(N(CCCC(=O)OCC)C(C)=O)cc(=O)n2cc(-c3ccc(Cl)cc3)nc12 [Compound 564] | 0.01 to 0.1 µM |
| CCCCCn1c(N2CCN(S(=O)(=O)N(C)C)CC2)cc(=O)n2cc(-c3ccc(Cl)cc3)nc12 [Compound 297] | 0.1 to 1 µM |
| CN(C)CCNC(=O)c1ccc(-c2cc(=O)n3cc(-c4ccc(Cl)cc4)nc3n2CCCC(F)(F)F)cc1 [Compound 381] | 0.01 to 0.1 µM |

Other lines, results leading:

| IC50 | Structure (SMILES) |
| --- | --- |
| < 0.01 µM | CCCCCn1c(N2CCC[C@H]2C(=O)NC(C)(C)C(=O)OC)cc(=O)n2cc(-c3ccc(Cl)cc3)nc12 [Compound 689] |
| 0.01 to 0.1 µM | CCCCCn1c(-c2ccc(C(N)=O)cc2)cc(=O)n2cc(-c3ccc(Cl)cc3)nc12 [Compound 375] |
| 0.01 to 0.1 µM | CCCCCn1c(N2CCC[C@H]2C(=O)N[C@@H]2CCNC2=O)cc(=O)n2cc(-c3ccc(Cl)cc3)nc12 [Compound 702] |
| 0.01 to 0.1 µM | CCCCCn1c(-c2ccc(C(=O)N3CCN(CCOC)CC3)cc2)cc(=O)n2cc(-c3ccc(Cl)cc3)nc12 [Compound 485] |
| < 0.01 µM | CCCCCn1c(-c2ccc(C(=O)NCCn3ccnc3)cc2)cc(=O)n2cc(-c3ccc(Cl)cc3)nc12 [Compound 514] |
| 0.01 to 0.1 µM | CCCCCn1c(-c2cnc(C#N)nc2)cc(=O)n2cc(-c3ccc(Cl)cc3)nc12 [Compound 530] |
| 0.01 to 0.1 µM | CCCCCn1c(-c2ccc(S(=O)(=O)NC)cc2)cc(=O)n2cc(-c3ccc(Cl)cc3)nc12 [Compound 431] |
| < 0.01 µM | CCCCCn1c(N2CCC[C@H]2C(=O)N[C@@H](Cc2ccccc2)C(=O)O)cc(=O)n2cc(-c3ccc(Cl)cc3)nc12 [Compound 740] |
| < 0.01 µM | CCCCCn1c(N2CCC[C@H]2C(=O)NC(C)CC(=O)O)cc(=O)n2cc(-c3ccc(Cl)cc3)nc12 (some centres unmarked) [Compound 356] |
| 0.01 to 0.1 µM | CCCCCn1c(OC2CN(CC(=O)OC(C)(C)C)C2)cc(=O)n2cc(-c3ccc(Cl)cc3)nc12 [Compound 574] |
| 0.01 to 0.1 µM | CCCCCn1c(-c2ccc(NS(C)(=O)=O)cc2)cc(=O)n2cc(-c3ccc(Cl)cc3)nc12 [Compound 401] |
| 0.01 to 0.1 µM | CCCCCn1c(-c2ccc(C(=O)NCCCn3cc(-c4cccnc4)cn3)cc2)cc(=O)n2cc(-c3ccc(Cl)cc3)nc12 [Compound 520] |
| < 0.01 µM | CCCCCn1c(N2CCC[C@H]2C(=O)NCCCC(=O)O)cc(=O)n2cc(-c3ccc(Cl)cc3)nc12 [Compound 354] |
| 0.01 to 0.1 µM | CCCCCn1c(-c2ccc(C(=O)NCc3ccc(S(N)(=O)=O)cc3)cc2)cc(=O)n2cc(-c3ccc(Cl)cc3)nc12 [Compound 521] |
| 0.01 to 0.1 µM | CCCCCn1c(N2CCNC[C@H]2C(=O)NCCC(=O)O)cc(=O)n2cc(-c3ccc(Cl)cc3)nc12 [Compound 664] |
| 0.01 to 0.1 µM | N#CCCCCn1c(NCc2ccc(C(=O)O)cc2)cc(=O)n2cc(-c3ccc(C(F)(F)F)cc3)nc12 [Compound 198] |
| 0.01 to 0.1 µM | CCCCCn1c(OC2CN(C(=O)CN3CCOCC3)C2)cc(=O)n2cc(-c3ccc(Cl)cc3)nc12 [Compound 543] |
| 0.01 to 0.1 µM | CCCCCn1c(-c2ccc(C(=O)N3CCOCC3)cc2)cc(=O)n2cc(-c3ccc(Cl)cc3)nc12 [Compound 473] |
| 0.01 to 0.1 µM | CCCCCn1c(N2CCC[C@H]2C(=O)N(C)CC(N)=O)cc(=O)n2cc(-c3ccc(Cl)cc3)nc12 [Compound 704] |
| < 0.01 µM | CCCCCn1c(N2CCC[C@H]2C(=O)NCCCCC(=O)O)cc(=O)n2cc(-c3ccc(Cl)cc3)nc12 [Compound 345] |
| < 0.01 µM | CCCCCn1c(N2CCC[C@H]2CC(=O)NCC(=O)O)cc(=O)n2cc(-c3ccc(Cl)cc3)nc12 [Compound 628] |
| < 0.01 µM | CCCCCn1c(N2C[C@@H](O)C[C@H]2C(=O)N[C@H](C(=O)O)C(C)(C)C)cc(=O)n2cc(-c3ccc(Cl)cc3)nc12 [Compound 778] |
| < 0.01 µM | CCCCCn1c(N2C[C@@H](O)C[C@H]2C(=O)N[C@@H](CCc2ccccc2)C(=O)O)cc(=O)n2cc(-c3ccc(Cl)cc3)nc12 [Compound 777] |

same assay, conditions: Assay Method C, human autotaxin, 18:0 Lyso PC substrate; read-out: Inhibitory Activity

| IC50 | Structure (SMILES) |
| --- | --- |
| > 1 µM | CS(=O)(=O)CCOCCNC(=O)Cc1cn(CCCC(F)(F)F)c2nc(-c3ccc(Cl)cc3)cn2c1=O [Compound 864] |
| 0.1 to 1 µM | CCCCCn1c(N2CCC[C@H]2C(=O)NCC(O)CC(F)(F)F)cc(=O)n2cc(-c3ccc(Cl)cc3)nc12 (some centres unmarked) [Compound 786] |
| 0.1 to 1 µM | CCCCCn1c(N2CCC[C@H]2C(=O)Nc2ccc(Oc3nn[nH]n3)cc2)cc(=O)n2cc(-c3ccc(Cl)cc3)nc12 [Compound 796] |
| > 1 µM | CCCCC(C(C)=O)n1cc(Cc2cccc(C(=O)O)c2)c(=O)n2cc(-c3ccc(Cl)cc3)nc12 (centres unmarked) [Compound 825] |
| < 0.01 µM | CCCCCn1c(N2CCC[C@H]2C(=O)NCc2c[nH]nn2)cc(=O)n2cc(-c3ccc(Cl)cc3)nc12 [Compound 790] |
| 0.01 to 0.1 µM | CCCCCn1c(N2CCC[C@H]2C(=O)N[C@@H](CC(C)C)C(N)=O)cc(=O)n2cc(-c3ccc(Cl)cc3)nc12 [Compound 797] |
| 0.01 to 0.1 µM | O=C(Cc1cn(CCCC(F)(F)F)c2nc(-c3ccc(Cl)cc3)cn2c1=O)NCc1nn[nH]n1 [Compound 858] |
| > 1 µM | CCCCCn1c(N2CCC[C@@H](c3ccccc3)C2)cc(=O)n2cc(-c3ccc(Cl)cc3)nc12 [Compound 813] |
| 0.01 to 0.1 µM | O=C(O)c1cccc(Cc2cn(CCCC(F)(F)F)c3nc(-c4ccc(Cl)cc4)cn3c2=O)c1 [Compound 826] |
